Measurements as given in patent publication US11247965B2 (VenatoRx Pharmaceuticals, Inc., priority 2017, dated 2022).

How the values were obtained:
[1] = system: HBV replication in HepAD38 cells; assay: Anti-HBV activity in HepAD38 cells, extracellular HBV DNA by QPCR; assay type: cell-based, HBV (genotype D, serotype ayw); settings: Hepatitis B virus, HePAD38, 168 h, read-out: Anti-HBV EC50, HepAD38 cells, extracellular HBV DNA by QPCR, 7 days of incubation
Procedure: The anti-HBV activity of the Capsid Assembly Modulators (CAMs) was evaluated in a cell based assay utilizing the human hepatoma cell line HepAD38 (Ladner, S K., et al., 1998). HepAD38 cells were derived from the parental line, HepG2, that were stably transfected with a construct containing an HBV genome (genotype D, serotype ayw) under the control of a tetracycline repressible CMV promoter. Upon removal of tetracycline, viral pre-genomic RNA (pgRNA) and mRNAs are expressed and infectious viral particles are assembled and secreted into the culture medium providing a reliable, robust system to measure multiple steps of the HBV life cycle. Disruption of capsid formation results in reduced levels of DNA-containing virus particles that are released into the culture supernatant. To quantify the effect of CAMs on HBV replication, we developed a sensitive QPCR-based assay that measures extracellular HBV DNA levels upon treatment of HepAD38 cells with various concentrations of test compounds.
HepAD38 cells were maintained in DMEM/F12 medium containing 10% FBS, 400 μg/mL G418 and 0.3 μg/mL tetracycline (tet+medium) to maintain repression of HBV replication. To evaluate each compound, HepAD38 cells were seeded into 24-well collagen coated culture plates (Corning BioCoat) at a density of 200,000 cells per well in 1 mL of tet+medium and allowed to adhere overnight at 37° C., 5% CO2 in a humidified incubator. The following day, test articles were subjected to half-logo serial dilutions, ranging from 30 μM to 10 nM, in 100% DMSO at 200× the desired final assay concentration. Tetracycline was removed from the cells by aspirating the tet+medium and washing the cells once with growth medium lacking tetracycline (tet-). Various concentrations of each compound were added to the appropriate wells (1:200 dilution) and the plates were returned to the incubator. Following 7 days of incubation, culture supernatants were harvested and HBV DNA levels were evaluated by QPCR and compared to the vehicle treated control wells (i.e. DMSO alone).
To quantify HBV DNA levels, cell culture supernatants were diluted 1:10 in sterile, nuclease-free water (Gibco). The diluted supernatants were subsequently added to a PCR master mix containing 1× Roche Light Cycler Master Mix, 0.5 μM forward primer, 0.5 μM reverse primer (Fwd:
0.2 μM Roche Universal Probe Library Probe 25. The volume was brought to 20 μL with nuclease-free water and amplification of the HBV target sequence was performed using a Roche LightCycler 480 QPCR instrument. PCR extended out to 45 cycles with each cycle consisting of a denaturation step at 95° C. for 10 sec., followed by an annealing step at 60° C. for 10 sec. and a brief extension step at 72° C. for 1 sec.
Extracellular HBV DNA levels, expressed in copies/mL, were determined by comparison to a standard curve (10^2-10^9 copies/mL) using the Roche LightCycler analysis software. These values were subsequently converted to percent inhibition of HBV replication by dividing the HBV DNA levels in the experimental samples with those obtained from the vehicle control (˜1-2×10^5 copies/mL). Potency, expressed as an EC50 (the effective concentration required to inhibit […] of HBV replication), was calculated from the dose-response curve using a 4-parameter non-linear regression analysis (GraphPad Prism). The nucleoside analog inhibitor entecavir was used as a positive control to validate each assay run. The EC50 value of entecavir in the HepAD38 assay was 0.5 nM, as previously reported in the literature.

[2] = In vitro cytotoxicity, MTT cell viability assay in HepG2 cells; assay type: cell-based; settings: human, Cytotoxicity CC50
Procedure: To evaluate antiviral selectivity, the cytotoxic activity of each compound was determined using a standard cell viability assay performed on the parental HepG2 cell line. Cell viability was determined by measuring the conversion of 3-(4,5-dimethylthiazol-2-yl)-2,5-diphenyltetrazolium bromide (MTT) to the insoluble formazan salt crystal that occurs in live cells. Briefly, HepG2 cells were seeded in 96-well plates at a density of 20,000 cells per well in EMEM+10% FBS (complete growth medium) and allowed to adhere overnight in a 37° C., 5% CO2 humidified incubator. The next day, test agents were prepared by performing 8 half-log10 serial dilutions in 100% DMSO at 200× the final desired concentration in the assay. Compounds were tested over a range of concentrations from 30 μM to 1.0 nM in the assay. HepG2 cells were incubated in the presence of various concentrations of CAMs for 7 days in a 37° C., 5% CO2 humidified incubator. At the completion of the 7-day incubation period, MTT reagent was added to each well and the mixture was incubated for an additional 3-4 hours. At the completion of the incubation period, all wells were aspirated to remove the culture medium. The formazan crystals were solubilized from the cell monolayers with 100% DMSO. Plates were briefly mixed on an orbital shaker and absorbance was measured at 492 nm using a Perkin-Elmer EnVision multi-label plate reader. All absorbance values were converted to a percentage of the signal obtained from the vehicle treated controls. Absorbance values at 492 nm are directly proportional to the number of viable cells present in the sample. A CC50 value (cytotoxic concentration that results in loss of 50% cell viability) was calculated from the dose-response curve by 4-parameter, non-linear regression analysis using the GraphPad Prism software. The positive control compound, staurosporine, reduced the viability of HepG2 cells in a dose-dependent manner (CC50=100 nM).

Row | Compound | EC50 [1] | CC50 at 7 days [2]
1 | O=C(Nc1ccc(F)c(F)c1)c1ccc(F)c(C(F)(F)C(=O)N(CCO)CCO)c1 [Example 16, 3-(2-(bis(2-hydroxyethyl)amino)-1,1-difluoro-2-oxoethyl)-N-(3,4-difluorophenyl)-4-fluorobenzamide] | 5 to 30 µM | > 30 µM
2 | Cc1cc(NC(=O)c2ccc(Cl)c(C(F)(F)C(=O)N3CCC(O)CC3)c2)ccc1F [Example 17, 4-chloro-3-(1,1-difluoro-2-(4-hydroxypiperidin-1-yl)-2-oxoethyl)-N-(4-fluoro-3-methylphenyl)benzamide] | < 5 µM | 5 to 30 µM
3 | CC(C)(C)NC(=O)C(F)(F)c1cc(C(=O)Nc2ccc(F)c(F)c2)ccc1F [Example 18, 3-(2-(tert-butylamino)-1,1-difluoro-2-oxoethyl)-N-(3,4-difluorophenyl)-4-fluorobenzamide] | 5 to 30 µM | 5 to 30 µM
4 | CCC(C)(C)NC(=O)C(F)(F)c1cc(C(=O)Nc2ccc(F)c(F)c2)ccc1F [Example 19, 3-(1,1-difluoro-2-oxo-2-(tert-pentylamino)ethyl)-N-(3,4-difluorophenyl)-4-fluorobenzamide] | < 5 µM | 5 to 30 µM
5 | O=C(Nc1ccc(F)c(F)c1)c1ccc(F)c(C(F)(F)C(=O)NC2CCCC2)c1 [Example 20, 3-(2-(cyclopentylamino)-1,1-difluoro-2-oxoethyl)-N-(3,4-difluorophenyl)-4-fluorobenzamide] | 5 to 30 µM | 5 to 30 µM
6 | COc1ccccc1NC(=O)C(F)(F)c1cc(C(=O)Nc2ccc(F)c(F)c2)ccc1F [Example 21, 3-(1,1-difluoro-2-((2-methoxyphenyl)amino)-2-oxoethyl)-N-(3,4-difluorophenyl)-4-fluorobenzamide] | 5 to 30 µM | 5 to 30 µM
7 | O=C(Nc1ccc(F)c(F)c1)c1ccc(F)c(C(F)(F)C(=O)Nc2ccc(F)cn2)c1 [Example 22, 3-(1,1-difluoro-2-((5-fluoropyridin-2-yl)amino)-2-oxoethyl)-N-(3,4-difluorophenyl)-4-fluorobenzamide] | 5 to 30 µM | > 30 µM
8 | Cc1cc(NC(=O)c2ccc(Cl)c(C(F)(F)C(=O)NC(C)C)c2)ccc1F [Example 23, 4-chloro-3-(1,1-difluoro-2-(isopropylamino)-2-oxoethyl)-N-(4-fluoro-3-methylphenyl)benzamide] | 5 to 30 µM | 5 to 30 µM
9 | CC(C)(CO)NC(=O)C(F)(F)c1cc(C(=O)Nc2ccc(F)c(F)c2)ccc1F [Example 24, 3-(1,1-difluoro-2-((1-hydroxy-2-methylpropan-2-yl)amino)-2-oxoethyl)-N-(3,4-difluorophenyl)-4-fluorobenzamide] | 5 to 30 µM | 5 to 30 µM
10 | O=C(Nc1ccc(F)c(F)c1)c1ccc(F)c(C(F)(F)C(=O)N2CCCCC(O)C2)c1 (stereo not drawn) [Example 25, 3-(1,1-difluoro-2-(3-hydroxyazepan-1-yl)-2-oxoethyl)-N-(3,4-difluorophenyl)-4-fluorobenzamide] | < 5 µM | 5 to 30 µM
11 | O=C(Nc1ccc(F)c(F)c1)c1ccc(F)c(C(F)(F)C(=O)NC2CCC(O)CC2)c1 (stereo not drawn) [Example 26, 3-(1,1-difluoro-2-(((1r,4r)-4-hydroxycyclohexyl)amino)-2-oxoethyl)-N-(3,4-difluorophenyl)-4-fluorobenzamide] | < 5 µM | 5 to 30 µM
12 | Cc1cc(NC(=O)c2ccc(F)c(C(F)(F)C(=O)NC(C)(C)CO)c2)ccc1F [Example 28, 3-(1,1-difluoro-2-((1-hydroxy-2-methylpropan-2-yl)amino)-2-oxoethyl)-4-fluoro-N-(4-fluoro-3-methylphenyl)benzamide] | 5 to 30 µM | > 30 µM
13 | Cc1cc(NC(=O)c2ccc(F)c(C(F)(F)C(=O)N3CCC(O)CC3)c2)ccc1F [Example 29, 3-(1,1-difluoro-2-(4-hydroxypiperidin-1-yl)-2-oxoethyl)-4-fluoro-N-(4-fluoro-3-methylphenyl)benzamide] | < 5 µM | > 30 µM
14 | Cc1cc(NC(=O)c2csc(C(F)(F)C(=O)N3CCC(O)CC3)n2)ccc1F [Example 30, 2-(1,1-difluoro-2-(4-hydroxypiperidin-1-yl)-2-oxoethyl)-N-(4-fluoro-3-methylphenyl)thiazole-4-carboxamide] | 5 to 30 µM | 5 to 30 µM
15 | CC(C)(CO)NC(=O)C(F)c1cc(C(=O)Nc2ccc(F)c(F)c2)ccc1F (stereo not drawn) [Example 31, N-(3,4-difluorophenyl)-4-fluoro-3-(1-fluoro-2-((1-hydroxy-2-methylpropan-2-yl)amino)-2-oxoethyl)benzamide] | 5 to 30 µM | 5 to 30 µM
16 | O=C(Nc1ccc(F)c(F)c1)c1ccc(F)c(C(F)C(=O)N2CCC(O)CC2)c1 (stereo not drawn) [Example 32, N-(3,4-difluorophenyl)-4-fluoro-3-(1-fluoro-2-(4-hydroxypiperidin-1-yl)-2-oxoethyl)benzamide] | < 5 µM | 5 to 30 µM
17 | N#Cc1cc(NC(=O)c2ccc(Cl)c(C(F)(F)C(=O)N3CCC(O)CC3)c2)ccc1F [Example 33, 4-chloro-N-(3-cyano-4-fluorophenyl)-3-(1,1-difluoro-2-(4-hydroxypiperidin-1-yl)-2-oxoethyl)benzamide] | < 5 µM | > 30 µM
18 | O=C(Nc1cc(F)c(F)c(F)c1)c1ccc(Cl)c(C(F)(F)C(=O)N2CCC(O)CC2)c1 [Example 34, 4-chloro-3-(1,1-difluoro-2-(4-hydroxypiperidin-1-yl)-2-oxoethyl)-N-(3,4,5-trifluorophenyl)benzamide] | < 5 µM | 5 to 30 µM
19 | O=C(Nc1ccc(F)c(Cl)c1)c1ccc(Cl)c(C(F)(F)C(=O)N2CCC(O)CC2)c1 [Example 35, 4-chloro-N-(3-chloro-4-fluorophenyl)-3-(1,1-difluoro-2-(4-hydroxypiperidin-1-yl)-2-oxoethyl)benzamide] | < 5 µM | 5 to 30 µM
20 | O=C(Nc1ccc(F)cc1)c1ccc(Cl)c(C(F)(F)C(=O)N2CCC(O)CC2)c1 [Example 36, 4-chloro-3-(1,1-difluoro-2-(4-hydroxypiperidin-1-yl)-2-oxoethyl)-N-(4-fluorophenyl)benzamide] | < 5 µM | > 30 µM
21 | O=C(Nc1ccc(Cl)cc1F)c1ccc(Cl)c(C(F)(F)C(=O)N2CCC(O)CC2)c1 [Example 37, 4-chloro-N-(4-chloro-2-fluorophenyl)-3-(1,1-difluoro-2-(4-hydroxypiperidin-1-yl)-2-oxoethyl)benzamide] | > 30 µM | > 30 µM
